Laboratory results taken from ChEMBL document CHEMBL1132081, “Design, synthesis, and structure-activity relationship studies of himbacine derived muscarinic receptor antagonists” (Bioorg Med Chem Lett, 1999).

Experiments:
[1] = molecular target: T1, Muscarinic acetylcholine receptor M1 (Homo sapiens, UniProt P11229); assay: Binding affinity towards human muscarinic M1 receptor in CHO-KI cells using [3H]- QNB as radioligand; type: cell-based
T1 sequence (P11229 whole entry): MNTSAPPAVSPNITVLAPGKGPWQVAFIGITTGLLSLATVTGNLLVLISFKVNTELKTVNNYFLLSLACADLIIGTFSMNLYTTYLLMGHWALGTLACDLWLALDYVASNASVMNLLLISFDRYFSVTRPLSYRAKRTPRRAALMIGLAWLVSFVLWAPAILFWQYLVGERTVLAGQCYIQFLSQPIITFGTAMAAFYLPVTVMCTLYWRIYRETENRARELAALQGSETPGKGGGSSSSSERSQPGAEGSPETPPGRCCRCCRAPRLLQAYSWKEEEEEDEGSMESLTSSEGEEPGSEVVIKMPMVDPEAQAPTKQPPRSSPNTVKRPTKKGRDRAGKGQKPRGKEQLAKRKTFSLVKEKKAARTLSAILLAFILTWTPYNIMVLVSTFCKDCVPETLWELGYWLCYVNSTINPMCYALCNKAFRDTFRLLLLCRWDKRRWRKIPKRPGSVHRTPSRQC

[2] = molecular target: T2, Muscarinic acetylcholine receptor M2 (Homo sapiens, UniProt P08172); assay: Binding affinity towards human muscarinic M2 receptor in CHO-KI cells using [3H]- QNB as radioligand; type: cell-based
T2 sequence (P08172 whole entry): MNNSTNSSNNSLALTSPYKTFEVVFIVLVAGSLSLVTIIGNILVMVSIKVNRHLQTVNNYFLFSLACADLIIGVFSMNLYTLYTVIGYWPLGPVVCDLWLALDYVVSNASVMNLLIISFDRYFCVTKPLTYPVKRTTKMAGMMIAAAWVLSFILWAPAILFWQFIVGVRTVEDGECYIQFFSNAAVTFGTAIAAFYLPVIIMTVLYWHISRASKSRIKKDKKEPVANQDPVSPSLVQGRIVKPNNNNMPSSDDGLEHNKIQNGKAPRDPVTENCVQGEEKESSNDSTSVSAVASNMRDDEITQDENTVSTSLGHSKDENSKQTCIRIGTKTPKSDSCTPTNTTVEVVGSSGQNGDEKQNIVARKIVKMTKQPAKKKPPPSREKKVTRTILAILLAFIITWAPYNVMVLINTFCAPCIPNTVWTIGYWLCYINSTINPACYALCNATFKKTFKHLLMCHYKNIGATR

| Compound | Ki [1] [nM] | Ki [2] [nM] |
| --- | --- | --- |
| C[C@@H]1OC(=O)[C@H]2C[C@H]3CCCC[C@@H]3[C@@H](CCCN3CCCCC3)[C@@H]12 | 427 | 352 |
| C[C@@H]1OC(=O)[C@H]2C[C@H]3CCCC[C@@H]3[C@@H](CCCN3CCN(C)CC3)[C@@H]12 | 579 | 595 |
| C[C@@H]1OC(=O)[C@H]2C[C@H]3CCCC[C@@H]3[C@@H](CCCN3CCSCC3)[C@@H]12 | 179 | 189 |
| C[C@@H]1OC(=O)[C@H]2C[C@H]3CCCC[C@@H]3[C@@H](CCCN3CCN(C4CCCCC4)CC3)[C@@H]12 | 464 | 520 |
| C[C@@H]1OC(=O)[C@H]2C[C@H]3CCCC[C@@H]3[C@@H](CCCN3CCC(N4CCCCC4)CC3)[C@@H]12 | 312 | 650 |
| C[C@@H]1OC(=O)[C@H]2C[C@H]3CCCC[C@@H]3[C@@H](CCCN3CCCC(O)C3)[C@@H]12 (stereo not given in full) | 1530 | 148 |
| CC1CCN(CCC[C@@H]2[C@H]3CCCC[C@@H]3C[C@@H]3C(=O)O[C@@H](C)[C@H]23)CC1 | 554 | 283 |
| C[C@@H]1OC(=O)[C@H]2C[C@H]3CCCC[C@@H]3[C@@H](CCCN3CCNCC3)[C@@H]12 | > 420 | > 42 |
| C[C@@H]1OC(=O)[C@H]2C[C@H]3CCCC[C@@H]3[C@@H](CCCN3CCN[C@@H](C)C3)[C@@H]12 | 581 | > 500 |
| C[C@@H]1OC(=O)[C@H]2C[C@H]3CCCC[C@@H]3[C@@H](CCCN3CCCC(C)(C)C3)[C@@H]12 | 416 | 224 |
| C[C@@H]1OC(=O)[C@H]2C[C@H]3CCCC[C@@H]3[C@@H](CCCN3CCOCC3)[C@@H]12 | 222 | 51 |
| C[C@@H]1OC(=O)[C@H]2C[C@H]3CCCC[C@@H]3[C@@H](CCCN3CCc4ccccc4C3)[C@@H]12 | 304 | 184 |
| C[C@@H]1OC(=O)[C@H]2C[C@H]3CCCC[C@@H]3[C@@H](CCCNC34CC5CC(CC(C5)C3)C4)[C@@H]12 | 136 | 26 |
| C[C@@H]1OC(=O)[C@H]2C[C@H]3CCCC[C@@H]3[C@@H](CCCN3CCCC4CCCCC43)[C@@H]12 (stereo not given in full) | 38 | 13 |
| CC1CN(CCC[C@@H]2[C@H]3CCCC[C@@H]3C[C@@H]3C(=O)O[C@@H](C)[C@H]23)CC(C)O1 (stereo not given in full) | 601 | 376 |
| CC1CN(CCC[C@@H]2[C@H]3CCCC[C@@H]3C[C@@H]3C(=O)O[C@@H](C)[C@H]23)C(C)CN1 (stereo not given in full) | 353 | 570 |
| CC1CCCN(CCC[C@@H]2[C@H]3CCCC[C@@H]3C[C@@H]3C(=O)O[C@@H](C)[C@H]23)C1 (stereo not given in full) | 376 | 312 |
| C[C@@H]1OC(=O)[C@H]2C[C@H]3CCCC[C@@H]3[C@@H](CC[C@H]3CCC[C@H](C)N3C)[C@@H]12 | 4.3 | 32.2 |
| C[C@@H]1OC(=O)[C@H]2C[C@H]3CCCC[C@@H]3[C@@H](CCCN3CCN(C(=O)OC(C)(C)C)CC3)[C@@H]12 | 445 | 485 |
| CC1CCCCN1CCC[C@@H]1[C@H]2CCCC[C@@H]2C[C@@H]2C(=O)O[C@@H](C)[C@H]12 (stereo not given in full) | 399 | 275 |
| C[C@@H]1CN(CCC[C@@H]2[C@H]3CCCC[C@@H]3C[C@@H]3C(=O)O[C@@H](C)[C@H]23)CCN1 | 857 | > 500 |
| CC1CN(CCC[C@@H]2[C@H]3CCCC[C@@H]3C[C@@H]3C(=O)O[C@@H](C)[C@H]23)CC(C)N1 (stereo not given in full) | 1360 | > 500 |
| CCC1CCCCN1CCC[C@@H]1[C@H]2CCCC[C@@H]2C[C@@H]2C(=O)O[C@@H](C)[C@H]12 (stereo not given in full) | 341 | 209 |
| C[C@@H]1OC(=O)[C@H]2C[C@H]3CCCC[C@@H]3[C@@H](CCCN3CCC(O)CC3)[C@@H]12 | > 900 | > 280 |
| C[C@@H]1OC(=O)[C@H]2C[C@H]3CCCC[C@@H]3[C@@H](/C=C/[C@H]3CCC[C@H](C)N3C)[C@@H]12 [HIMBACINE] | 4.5 | 48.4 |
